From PMC11304383 (Molecular Pharmaceutics, 2024)
Values after ≈ are worked out from the molar mass of the structure shown. Where two headings read alike, the source gives them in different places.

Assays:
[1] = Thermodynamic solubility, shake flask method; format: physicochemical; settings: phosphate buffer 50 mM pH 6.8, 24 h, 37 °C; read-out: thermodynamic solubility of CRT
Method: Excess amounts of CRT and CAMs were added to solubility vials (2 mL) containing the buffer. These vials were then subjected to agitation on an orbital shaker for 24 h at 37 °C and 120 rpm. After this incubation period, the pH of the samples was checked and adjusted if necessary just before centrifugation. Centrifugation was carried out at 37 °C, 10,000 rpm, for 10 min, trailed by the collection of the supernatant and its dilution using the mobile phase. The samples were then analyzed by using the HPLC method described below. This experimental procedure was conducted in triplicate (n = 3).
The Shimadzu Prominence UHPLC with a UV detector was used for the analysis. A GraceSmart Brava BDS-C18 column (250 mm × 4.6 mm × 5 μm) was used for chromatographic separation. The mobile phase was given in a gradient manner with 42:50:8% v/v methanol:25 mM phosphate buffer pH 3.0:ACN for 5 min and 50:50% v/v acetonitrile:25 mM phosphate buffer pH 3.0 for 17 min at a flow rate of 1 mL/min.

[2] = Amorphous solubility, solvent quench method; format: physicochemical; settings: higher in distilled water
Method: The amorphous solubility of CRT was measured using the solvent quench method, which employed methanol and HPMC as the solvent and crystallization inhibitor, respectively. […] The detailed amorphous solubility methodology can be found in Shete et al. (2021).[39]

CYP2C9 = system: CYP2C9; set-up: method as in PMID 33394101; settings: 33 adult NSCLC patients; cited from earlier work
A549 cells [3] = assay: Cell cycle analysis by flow cytometry (propidium iodide); format: cell-based, human; settings: individual IC50 concentrations, 48 h
Method: Exponentially growing cells were detached from T-25 cell culture flasks using trypsin and then transferred to sterile Petri plates. The cells were allowed to attach and grow for approximately 24 h. After the attachment period, different treatments were applied to the cells, and the plates were further incubated for 48 h. The media was removed after 48 h of incubation, and the plates were rinsed two times with phosphate buffer. After that, the cells were trypsinized and centrifuged at 4 °C. After centrifugation, the pellet was fixed in 70% ice-cold ethanol for 30 min at 4 °C. The resulting pellet was resuspended in Dulbecco’s phosphate-buffered saline (PBS) to wash the cells. After another round of centrifugation, the supernatant was removed and the pellet was redispersed in a staining solution consisting RNase, propidium iodide, and NP-40. For 20 min, the cell suspension was incubated in the dark at room temperature. The cells were then analyzed with a BD Accuri C6 flow cytometer (BD Biosciences, San Jose, CA, USA).[42]

[4] = Oral pharmacokinetic study; format: in vivo, male Wistar rats; settings: single oral dose 15 mg/kg
Method: Pharmacokinetic studies were conducted by following the CPCSEA guidelines. MAHE-IAEC (IAEC/KMC/24/2020) approved the study. The study utilized a parallel design, with each group comprising 3 male Wistar rats weighing approximately 200 g, with a variation of ±20 g. Prior to treatment, the rats underwent a 12 h fasting period but were allowed access to water. Treatment A involved administering a dose of 15 mg/kg of CRT, suspended in a 0.5% (w/v) carboxyl methyl cellulose (CMC) aqueous solution. Treatment B consisted of a 15 mg/kg equivalent CRT CAMs suspension prepared in a 0.5% (w/v) CMC vehicle. The animals received 1 mL of the suspension orally via oral gavage. The interested readers are directed to the pharmacokinetic study reported by Yarlagadda et al. (2023) for detailed methodology.[38]

CYP3A = system: CYP3A; set-up: method as in PMID 33394101; settings: 33 adult NSCLC patients; cited from earlier work
A549 cells [5] = assay: SRB (sulforhodamine B) cytotoxicity assay; format: cell-based; settings: Homo sapiens, read-out: IC50 value
Method: A cell suspension was made based on cell count, and 5000 cells were seeded per well in a 96-well plate. […] The SRB assay was performed after a 48 h incubation […], and the absorbance at 540 nm was determined using a plate reader.[40]

[6] = set-up: method as in doi:10.1021/acs.cgd.7b01027; settings: cited from earlier work
P-gp = system: P-gp; set-up: method as in doi:10.1016/j.jddst.2022.103431; settings: read-out: IC50 value of NRG for P-gp inhibition; cited from earlier work
[7] = set-up: method as in doi:10.1007/s12247-019-09381-9; settings: cited from earlier work
[8] = male, Wistar, rat, plasma, n = 3

SMILES | solubility thermodynamic at 24 h [1] | amorphous solubility of CRT, distilled water versus pH 6.8 phosphate buffer [2] | improvement of AUC of S-warfarin by CRT (CYP2C9) | %G1 (percentage of cells in G0/G1 phase) (A549 cells [3]) | %G2 (percentage of cells in G2/M phase) (A549 cells [3]) | Cmax ([4]; male, Wistar, rat, plasma, po, 15 mg/kg, n = 3, read-out: Cmax of CRT) | MRT [4, 8] | Tmax [4, 8] | half-life [4, 8] | AUC(0-t) ([4]; male, Wistar, rat, plasma, n = 3, 72 h, read-out: AUC0–t of CRT) | Cmax of CRT ([4]; n = 3, 15 mg/kg) | enhancement of AUC of midazolam by CRT versus midazolam alone (CYP3A) | enhancement of Cmax of midazolam by CRT versus midazolam alone (CYP3A) | IC50 (A549 cells [5]; A549, 48 h) | excess enthalpy of CRT in water [6] | IC50 (P-gp) | glass transition event temperature [7] | IC50 (A549 cells [5]; A549, SRB, 48 h incubation)
Cc1cc(Nc2ncc(Cl)c(Nc3ccccc3S(=O)(=O)C(C)C)n2)c(OC(C)C)cc1C1CCNCC1 [CRT, ceritinib] | 3.3 µg/mL (≈ 5.91 µM) | approximately threefold | 56% | 47.1% | 23.9% | 173 ng/mL | 20.2 ± 0.75 h | 6 h | 22.1 h | 3580 ± 218 ng·h/mL | 173.26 ± 5.34 ng/mL | 5.42 fold | 1.82 fold | 3.53 µM | -0.844 kcal/mol | – | – | –
C[C@@H]1O[C@@H](O[C@H]2[C@H](Oc3cc(O)c4c(c3)O[C@H](c3ccc(O)cc3)CC4=O)O[C@H](CO)[C@@H](O)[C@@H]2O)[C@H](O)[C@H](O)[C@H]1O [NRG, naringin] | – | – | – | – | – | – | – | – | – | – | – | – | – | – | – | 2400 µM | 167 °C | 162 µM
